One assay deals with AsPC-1 (K-Ras G12D). As to the kind of experiment: Potency assay: pERK. Format: cell-based, human. The conditions noted are these: Homo sapiens. As for the experimental part:
The purpose of this assay is to measure the ability of test compounds to inhibit K-Ras in cells. […] This procedure measures a decrease in cellular pERK in response to test compounds. The procedure described below in NCI-H358 cells is applicable to K-Ras G12C.
NCI-H358 cells were grown and maintained using media and procedures recommended by the ATCC. On the day prior to compound addition, cells were plated in 384-well cell culture plates (40 μl/well) and grown overnight in a 37° C., 5% CO2 incubator. Test compounds were prepared in 10, 3-fold dilutions in DMSO, with a high concentration of 10 mM. On the day of assay, 40 nL of test compound was added to each well of cell culture plate using an Echo550 liquid handler (LabCyte®). Concentrations of test compound were tested in duplicate. After compound addition, cells were incubated 4 hours at 37° C., 5% CO2. Following incubation, culture medium was removed and cells were washed once with phosphate buffered saline.
In some experiments, cellular pERK level was determined using the AlphaLISA SureFire Ultra p-ERK1/2 Assay Kit (PerkinElmer). Cells were lysed in 25 μL lysis buffer, with shaking at 600 RPM at room temperature. Lysate (10 μL) was transferred to a 384-well Opti-plate (PerkinElmer) and 5 μL acceptor mix was added. After a 2-hour incubation in the dark, 5 μL donor mix was added, plate was sealed, and incubated 2 hours at room temperature. Signal was read on an Envision plate reader (PerkinElmer) using standard AlphaLISA settings. Analysis of raw data was carried out in Excel (Microsoft) and Prism (GraphPad). Signal was plotted vs. the decadal logarithm of compound concentration, and IC50 was determined by fitting a 4-parameter sigmoidal concentration response model.
In other experiments, cellular pERK was determined by In-Cell Western. Following compound treatment, cells were washed twice with 200 μL tris buffered saline (TBS) and fixed for 15 minutes with 150 μL 4% paraformaldehyde in TBS. Fixed cells were washed 4 times for 5 minutes with TBS containing 0.1% Triton X-100 (TBST) and then blocked with 100 μL Odyssey blocking buffer (LI-COR) for 60 minutes at room temperature. Primary antibody (PERK, CST-4370, Cell Signaling Technology) was diluted 1:200 in blocking buffer, and 50 μL was added to each well and incubated overnight at 4° C. Cells were washed 4 times for 5 minutes with TBST. Secondary antibody (IR-800CW rabbit, LI-COR, diluted 1:800) and DNA stain DRAQ5 (LI-COR, diluted 1:2000) were added and incubated 1-2 hours at room temperature. Cells were washed 4 times for 5 minutes with TBST. Plates were scanned on a Li—COR Odyssey CLx Imager. Analysis of raw data was carried out in Excel (Microsoft) and Prism (GraphPad). Signal was plotted vs. the decadal logarithm of compound concentration, and IC50 was determined by fitting a 4-parameter sigmoidal concentration response model.

The test system of assay [1] is NCI-H358 cells (K-Ras G12C). Description: CellTiter-Glo cell viability, NCI-H358. Format: cell-based, human. As to conditions: Homo sapiens, NCI-H358, 120 h, K-Ras G12C, 5-day treatment; read-out: H358 Cell Viability IC50. Summed up: (§1)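 Five-day treatment of K-Ras mutant cells with directly dispensed compound; ATP-based luminescence endpoint. Percent of DMSO signal fit to four-parameter logistic curve.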

For a further assay, the target named is KRAS G12C (Homo sapiens (Human), UniProt P01116+P62937, G12C). Description: Ras-Raf disruption/FRET/MOA assay (BRAF RBD, Cyclophilin A). The class given is biochemical. As to conditions: read-out: KRAS G12C FRET IC50. An outline of the steps:
(§2)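 25 μM tagless Cyclophilin A, 12.5 nM His6-Ras-GMPPNP and 50 nM GST-BRAF RBD in HEPES pH 7.3 buffer with 5 mM MgCl2, with compound (10-point 3-fold series from 30 μM final) for 3 h at 25 °C. Anti-His Eu and anti-GST APC then added for 1.5 h. IC50 from TR-FRET ratio decrease versus DMSO.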

The next assay has as its target NRAS Q61K (Homo sapiens (Human), UniProt P01111+P62937, Q61K). Described as above. Format: biochemical. Summed up:
as §2

Another assay deals with KRAS G12S (Homo sapiens (Human), UniProt P01116+P62937, G12S). Described as above. Format: biochemical. The conditions noted are these: read-out: KRAS G12S FRET IC50. Summed up: as §2
The target of a further assay is KRAS G13D (Homo sapiens (Human), UniProt P01116+P62937, G13D). Described as above. Format: biochemical. The conditions noted are these: read-out: KRAS G13D FRET data IC50. Summed up:
as §2

A further assay addresses NRAS WT (Homo sapiens (Human), UniProt P01111+P62937). Described as above. Format: biochemical. An outline of the steps: as §2
The next assay deals with KRAS G13C (Homo sapiens (Human), UniProt P01116+P62937, G13C). The assay is described as above. The conditions noted are these: read-out: KRAS G13C FRET IC50. Format: biochemical. An outline of the steps:
as §2

A further assay deals with KRAS G12D (Homo sapiens (Human), UniProt P01116+P62937, G12D). Described as above. The conditions noted are these: read-out: KRAS G12D FRET IC50. Format: biochemical. An outline of the steps: as §2
In another assay the target is KRAS WT (Homo sapiens (Human), UniProt P01116+P62937). Described as above. Format: biochemical. As to conditions: read-out: KRAS WT FRET data IC50. An outline of the steps: as §2
A further assay addresses KRAS G12V (Homo sapiens (Human), UniProt P01116+P62937, G12V). The description is as above. The class given is biochemical. As to conditions: read-out: KRAS G12V FRET IC50. An outline of the steps:
as §2

Another assay has as its target NRAS G12C (Homo sapiens (Human), UniProt P01111+P62937, G12C). The assay is described as above. The class given is biochemical. As to conditions: read-out: NRAS G12C FRET data IC50. Summed up: as §2
Assay [2] has as its system K-Ras G12C (NCI-H358 cells). Description: Potency assay: pERK in NCI-H358 cells. Format: cell-based, human. The conditions noted are these: Homo sapiens; NCI-H358 cells, 4 hours; read-out: pERK EC50 (H358 KRAS G12C). Summed up:
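Cells plated the day before were exposed for 4 h at 37° C, 5% CO2 to a 10-point, 3-fold DMSO dilution series (10 mM top stock), in duplicate. Phospho-ERK was read by AlphaLISA SureFire Ultra or by In-Cell Western with DRAQ5 DNA stain, and IC50 came from a 4-parameter sigmoidal fit.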

Assay [3] concerns Capan-1 cells (K-Ras G12V). Description: CellTiter-Glo cell viability, Capan-1. The class given is cell-based, human. As to conditions: Homo sapiens, CAPAN-1, 120 h, K-Ras G12V, 5-day treatment; read-out: Capan-1 Cell Viability IC50. Summed up:
as §1
(In ATP-based viability assays light output follows the ATP content of the culture.)

The mark [4] stands for this setting: ASPC1, AsPC-1 KRAS G12D, read-out: pERK EC50.

SMILES strings stand for the structures. Values joined by “and” are separate entries in the source; they are usually repeats but may differ in a detail not shown here. Identical values can stand only once. Like-named read-outs stand apart in the source and are kept apart here.

Results on ten compounds are retold here after patent US20250195521A1 (Revolution Medicines, Inc., priority 2020, published 2025).

Chain of KRAS G12S (P01116 other isoform, or with tags, fused parts or gaps G12S): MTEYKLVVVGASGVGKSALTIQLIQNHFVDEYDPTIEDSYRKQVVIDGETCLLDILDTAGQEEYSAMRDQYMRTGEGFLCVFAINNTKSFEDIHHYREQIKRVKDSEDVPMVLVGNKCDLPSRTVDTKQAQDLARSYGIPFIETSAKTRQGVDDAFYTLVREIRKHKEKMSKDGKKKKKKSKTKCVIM
Chain of KRAS G12S (P62937 whole entry): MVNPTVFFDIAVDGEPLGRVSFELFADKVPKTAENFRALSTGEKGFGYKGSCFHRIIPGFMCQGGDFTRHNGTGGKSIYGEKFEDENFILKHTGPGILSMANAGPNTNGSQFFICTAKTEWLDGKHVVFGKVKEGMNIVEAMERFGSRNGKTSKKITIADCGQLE
Chain of NRAS Q61K (P01111 whole entry Q61K): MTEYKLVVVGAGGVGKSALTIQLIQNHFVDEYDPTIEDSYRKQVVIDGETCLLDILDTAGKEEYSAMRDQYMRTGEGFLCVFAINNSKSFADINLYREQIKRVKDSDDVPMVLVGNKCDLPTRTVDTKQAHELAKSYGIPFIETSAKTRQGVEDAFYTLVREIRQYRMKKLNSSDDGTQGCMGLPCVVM
Chain of NRAS Q61K (P62937 whole entry): as the sequence (P62937 whole entry) above
Chain of KRAS G12D (P01116 other isoform, or with tags, fused parts or gaps G12D): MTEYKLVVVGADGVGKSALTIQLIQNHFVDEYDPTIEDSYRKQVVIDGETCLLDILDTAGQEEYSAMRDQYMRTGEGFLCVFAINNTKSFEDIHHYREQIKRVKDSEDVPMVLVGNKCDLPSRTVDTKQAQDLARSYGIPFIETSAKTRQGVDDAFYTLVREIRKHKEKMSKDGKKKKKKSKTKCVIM
Chain of KRAS G12D (P62937 whole entry): as the sequence (P62937 whole entry) above
Chain of NRAS G12C (P01111 whole entry G12C): as the sequence (P01111 whole entry Q61K) above, with G12C, K61Q counted along it
Chain of NRAS G12C (P62937 whole entry): as the sequence (P62937 whole entry) above
Chain of NRAS WT (P01111 whole entry): as the sequence (P01111 whole entry Q61K) above, with K61Q counted along it
Chain of NRAS WT (P62937 whole entry): as the sequence (P62937 whole entry) above
Chain of KRAS G13C (P01116 other isoform, or with tags, fused parts or gaps G13C): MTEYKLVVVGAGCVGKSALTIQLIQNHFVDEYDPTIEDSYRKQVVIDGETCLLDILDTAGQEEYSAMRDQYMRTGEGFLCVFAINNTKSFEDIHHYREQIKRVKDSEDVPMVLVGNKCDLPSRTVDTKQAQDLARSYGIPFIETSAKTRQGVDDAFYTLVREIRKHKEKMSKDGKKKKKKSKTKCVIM
Chain of KRAS G13C (P62937 whole entry): as the sequence (P62937 whole entry) above
Chain of KRAS G12V (P01116 other isoform, or with tags, fused parts or gaps G12V): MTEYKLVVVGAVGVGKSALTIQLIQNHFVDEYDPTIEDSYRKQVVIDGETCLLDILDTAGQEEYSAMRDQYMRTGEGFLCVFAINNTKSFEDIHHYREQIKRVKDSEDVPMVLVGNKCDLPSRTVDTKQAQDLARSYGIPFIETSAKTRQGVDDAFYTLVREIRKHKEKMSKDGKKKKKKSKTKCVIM
Chain of KRAS G12V (P62937 whole entry): as the sequence (P62937 whole entry) above
Chain of KRAS G13D (P01116 other isoform, or with tags, fused parts or gaps G13D): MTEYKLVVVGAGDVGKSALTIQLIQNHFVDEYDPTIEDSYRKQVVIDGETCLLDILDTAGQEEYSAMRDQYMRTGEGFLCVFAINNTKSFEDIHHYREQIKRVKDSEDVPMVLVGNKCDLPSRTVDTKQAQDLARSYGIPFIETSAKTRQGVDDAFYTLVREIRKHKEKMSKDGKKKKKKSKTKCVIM
Chain of KRAS G13D (P62937 whole entry): as the sequence (P62937 whole entry) above
Chain of KRAS WT (P01116 other isoform, or with tags, fused parts or gaps): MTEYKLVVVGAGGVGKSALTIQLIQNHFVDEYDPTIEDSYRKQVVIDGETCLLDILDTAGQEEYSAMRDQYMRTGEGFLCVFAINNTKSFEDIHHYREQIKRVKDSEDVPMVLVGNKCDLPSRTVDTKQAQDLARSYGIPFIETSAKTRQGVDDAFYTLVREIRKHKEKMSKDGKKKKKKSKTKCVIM
Chain of KRAS WT (P62937 whole entry): as the sequence (P62937 whole entry) above
Chain of KRAS G12C (P01116-2 other isoform, or with tags, fused parts or gaps G12C): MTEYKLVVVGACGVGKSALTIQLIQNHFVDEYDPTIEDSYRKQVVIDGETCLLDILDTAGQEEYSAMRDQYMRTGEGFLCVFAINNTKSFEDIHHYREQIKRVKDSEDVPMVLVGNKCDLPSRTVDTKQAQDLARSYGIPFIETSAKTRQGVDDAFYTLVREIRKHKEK
Chain of KRAS G12C (P62937 whole entry): as the sequence (P62937 whole entry) above

On to `CCn1c(-c2cccnc2[C@H](C)OC)c2c3cc(ccc31)-c1cc(O)cc(c1)C[C@H](NC(=O)[C@H](C(C)C)N(C)C(=O)N1CCN(C(=O)[C@@H]3CN3)CC1)C(=O)N1CCC[C@H](N1)C(=O)OCC(C)(C)C2` (atropisomer, axis not shown) [Example 197], for which the EC50 in the assay on AsPC-1 (K-Ras G12D) (setting [4]) is under 5 µM.
Take `CO[C@@H](C)c1ncccc1-c1c2c3cc(ccc3n1C)-c1cc(O)cc(c1)C[C@H](NC(=O)[C@H](C(C)C)N(C)C(C)=O)C(=O)N1CCC[C@H](N1)C(=O)OCC(C)(C)C2` [Compound A104]: the concentration for half-maximal inhibition (IC50) in assay [1] was 1 to 10 µM; on KRAS G12C, 1 to 10 µM and > 10 µM; against NRAS Q61K it was 1 to 10 µM; on KRAS G12S, over 10 µM; at KRAS G13D it was over 10 µM; against NRAS WT it was 1 to 10 µM. Besides, the concentration for half-maximal inhibition (IC50) was 1 to 10 µM at KRAS G13C; over 10 µM at KRAS G12D; over 10 µM at KRAS WT; over 10 µM at KRAS G12V; over 10 µM at NRAS G12C; over 10 µM in [3]. Further, in [2], the EC50 was under 5 µM.
Turning to `CCn1c(-c2cccnc2[C@H](C)OC)c2c3cc(ccc31)-c1csc(n1)C[C@H](NC(=O)[C@H](C(C)C)N1CCC3(CN(S(C)(=O)=O)C3)C1=O)C(=O)N1CCC[C@H](N1)C(=O)OCC(C)(C)C2` [Compound A234], the IC50 against NRAS Q61K was 1 to 10 µM; on KRAS G12S it was over 10 µM; at KRAS G13D it was over 10 µM; at NRAS WT, 1 to 10 µM; on KRAS G13C, 1 to 10 µM; at KRAS G12D, over 10 µM. Further, the half-inhibitory concentration (IC50) is 1 to 10 µM on KRAS WT, over 10 µM on KRAS G12V, over 10 µM on NRAS G12C and over 10 µM in assay [3].
Turning to `CCn1c(-c2cccnc2[C@H](C)OC)c2c3cc(ccc31)-c1cc(O)cc(c1)C[C@H](NC(=O)[C@H](C(C)C)N(C)C(=O)CN(C)C(=O)[C@H]1CN1)C(=O)N1CCC[C@H](N1)C(=O)OCC(C)(C)C2` [Example 42A], in the assay on AsPC-1 (K-Ras G12D) (ASPC1, read-out: pERK EC50), the concentration for a half-maximal effect (EC50) is under 5 µM.
With `CCn1c(-c2cccnc2[C@H](C)OC)c2c3cc(ccc31)-c1cc(O)cc(c1)C[C@H](NC(=O)[C@H](C(C)C)N(C)C(=O)c1ccc([C@@H]3CN3)cc1)C(=O)N1CCC[C@H](N1)C(=O)OCC(C)(C)C2` [Example 131], the half-maximal effective concentration (EC50) with AsPC-1 (K-Ras G12D) (setting [4]) was under 5 µM.
On the same count and under the same terms, for `CCn1c(-c2cccnc2[C@H](C)OC)c2c3cc(ccc31)-c1cc(O)cc(c1)C[C@H](NC(=O)[C@H](C(C)C)N(C)C(=O)N1CCN(C(=O)[C@H]3CN3)CC1)C(=O)N1CCC[C@H](N1)C(=O)OCC(C)(C)C2` [Example 177, 4-((R)-aziridine-2-carbonyl)-N-((2S)-1-(((6^3S,4S)-1^1-ethyl-2^5-hydroxy-1^2-(2-((S)-1-methoxyethyl)pyridin-3-yl)-10,10-dimethyl-5,7-dioxo-6^1,6^2,6^3,6^4,6^5,6^6-hexahydro-1^1H-8-oxa-1 (5,3)-indola-6 (1,3)-pyridazina-2 (1,3)-benzenacycloundecaphane-4-yl)amino)-3-methyl-1-oxobutan-2-yl)-N-methylpiperazine-1-carboxamide] the value was under 5 µM; for `CCn1c(-c2cccnc2[C@H](C)OC)c2c3cc(ccc31)-c1cc(O)cc(c1)C[C@H](NC(=O)[C@H](C1CCCC1)N1CC[C@@]3(CCN(C(=O)[C@@H]4N[C@@H]4C4CC4)C3)C1=O)C(=O)N1CCC[C@H](N1)C(=O)OCC(C)(C)C2` [Example 215], under 5 µM.
Same read-out and setting: the figure for `CCn1c(-c2cccnc2[C@H](C)OC)c2c3cc(ccc31)-c1csc(n1)C[C@H](NC(=O)[C@H](C1CCCC1)N1CC[C@]3(CCN(C(=O)[C@@H]4N[C@@H]4C4CC4)C3)C1=O)C(=O)N1CCC[C@H](N1)C(=O)OCC(C)(C)C2` [Example 234] is under 5 µM.
Regarding `CCn1c(-c2cccnc2[C@H](C)OC)c2c3cc(ccc31)-c1cc(O)cc(c1)C[C@H](NC(=O)[C@H](C(C)C)N(C)C(=O)CN(C)C(=O)[C@@H]1CN1CCCN1CCCC1=O)C(=O)N1CCC[C@H](N1)C(=O)OCC(C)(C)C2` (stereo partly shown) [Example 269], the EC50 in the assay with AsPC-1 (K-Ras G12D) (ASPC1, read-out: pERK EC50) is under 5 µM.
As for `CCn1c(-c2cccnc2[C@H](C)OC)c2c3cc(ccc31)-c1cc(cc(C(F)F)c1)C[C@H](NC(=O)[C@H](C1CCCC1)N1CC[C@]3(CCN(C(=O)[C@@H]4N[C@@H]4C4CC4)C3)C1=O)C(=O)N1CCC[C@H](N1)C(=O)OCC(C)(C)C2` [Example 318], the EC50 in the assay with AsPC-1 (K-Ras G12D) (setting [4]) was under 5 µM.

For orientation: EC50 means the concentration at which the effect is half-maximal. As a reminder, the IC50 is the concentration that gives 50% inhibition.
